According to ChEMBL document CHEMBL3596159, “Beyond substrate analogues: new inhibitor chemotypes for glycosyltransferases” (Medchemcomm, 2014):
Converted amounts (≈) assume the structure as drawn. Each block holds one compound with its values, some of them ahead of it.

Key:
[1] = Inhibition of human beta-1,4-GalT
[2] = Inhibition of MGDG (unknown origin)
[3] = biological target: Ceramide glucosyltransferase (Homo sapiens, UniProt Q16739); assay: Inhibition of glucosylceramide synthase (unknown origin)
Chain of Ceramide glucosyltransferase (Q16739 whole entry): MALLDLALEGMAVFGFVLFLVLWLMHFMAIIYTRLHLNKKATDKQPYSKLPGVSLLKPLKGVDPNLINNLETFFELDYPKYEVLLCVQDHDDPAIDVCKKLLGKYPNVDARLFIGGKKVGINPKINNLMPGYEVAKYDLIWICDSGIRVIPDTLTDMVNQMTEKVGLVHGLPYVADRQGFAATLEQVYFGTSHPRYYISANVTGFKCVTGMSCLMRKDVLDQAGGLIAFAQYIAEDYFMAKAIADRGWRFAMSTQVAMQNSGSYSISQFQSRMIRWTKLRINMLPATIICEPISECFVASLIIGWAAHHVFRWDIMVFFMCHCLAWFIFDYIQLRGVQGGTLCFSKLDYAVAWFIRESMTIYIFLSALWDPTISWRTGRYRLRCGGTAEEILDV

[4] = Inhibition of candida albicans beta-(1,3)-glucan synthase assessed as decrease in transfer of radiolabelled glucose from UDP-[3H]-glucose onto acceptor
Candida albicans = assay: Antifungal activity against Candida albicans; assay type: functional
[5] = Inhibition of short OGT (unknown origin); parameters: species or system Homo sapiens
[6] = biological target: Alpha-(1,3)-fucosyltransferase 4 (Homo sapiens, UniProt P22083); assay: Inhibition of FucT-4 (unknown origin)
Chain of Alpha-(1,3)-fucosyltransferase 4 (P22083 whole entry): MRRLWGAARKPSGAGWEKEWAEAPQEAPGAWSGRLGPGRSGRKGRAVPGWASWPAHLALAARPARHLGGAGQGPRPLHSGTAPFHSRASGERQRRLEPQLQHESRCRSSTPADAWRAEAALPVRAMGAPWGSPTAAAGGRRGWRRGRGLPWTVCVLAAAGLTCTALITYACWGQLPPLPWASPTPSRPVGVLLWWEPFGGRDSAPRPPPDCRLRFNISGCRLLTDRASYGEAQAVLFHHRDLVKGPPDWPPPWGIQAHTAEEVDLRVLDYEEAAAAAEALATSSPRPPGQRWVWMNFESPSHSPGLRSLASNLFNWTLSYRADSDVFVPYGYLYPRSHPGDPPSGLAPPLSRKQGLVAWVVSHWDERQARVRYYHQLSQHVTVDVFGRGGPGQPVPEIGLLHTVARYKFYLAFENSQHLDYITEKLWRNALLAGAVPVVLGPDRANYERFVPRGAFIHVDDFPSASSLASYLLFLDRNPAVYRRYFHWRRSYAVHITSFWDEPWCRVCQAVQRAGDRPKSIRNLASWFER

[7] = biological target: T1, CMP-N-acetylneuraminate-beta-1,4-galactoside alpha-2,3-sialyltransferase (Homo sapiens, UniProt Q11203); assay: Inhibition of ST3N (unknown origin)
T1 sequence (Q11203 whole entry): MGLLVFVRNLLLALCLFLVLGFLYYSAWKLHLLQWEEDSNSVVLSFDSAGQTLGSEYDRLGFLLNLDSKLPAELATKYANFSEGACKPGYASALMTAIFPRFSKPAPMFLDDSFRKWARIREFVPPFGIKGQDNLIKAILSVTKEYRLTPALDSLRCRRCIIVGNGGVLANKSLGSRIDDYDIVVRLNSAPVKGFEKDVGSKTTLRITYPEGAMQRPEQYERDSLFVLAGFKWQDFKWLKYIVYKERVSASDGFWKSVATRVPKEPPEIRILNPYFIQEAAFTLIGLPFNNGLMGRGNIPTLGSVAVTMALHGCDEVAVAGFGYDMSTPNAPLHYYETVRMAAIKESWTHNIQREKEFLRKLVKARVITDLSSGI

[8] = biological target: T2, Alpha-(1,3)-fucosyltransferase 7 (Homo sapiens, UniProt Q11130); assay: Inhibition of FucT-7 (unknown origin)
T2 sequence (Q11130 whole entry): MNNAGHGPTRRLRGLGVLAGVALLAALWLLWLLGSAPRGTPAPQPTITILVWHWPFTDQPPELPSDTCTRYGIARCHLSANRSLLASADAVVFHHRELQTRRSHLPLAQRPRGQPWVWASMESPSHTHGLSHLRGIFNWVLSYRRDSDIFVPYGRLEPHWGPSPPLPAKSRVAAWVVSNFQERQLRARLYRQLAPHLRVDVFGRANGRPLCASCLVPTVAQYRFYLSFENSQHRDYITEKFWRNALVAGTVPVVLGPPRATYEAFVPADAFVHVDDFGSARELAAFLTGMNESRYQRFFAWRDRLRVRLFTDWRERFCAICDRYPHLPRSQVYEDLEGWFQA

[9] = Inhibition of beta-1,4-GalT (unknown origin); parameters: species or system Homo sapiens
[10] = biological target: Alpha-(1,6)-fucosyltransferase (Homo sapiens, UniProt Q9BYC5); assay: Inhibition of FucT-8 in human blood platelets
Chain of Alpha-(1,6)-fucosyltransferase (Q9BYC5 whole entry): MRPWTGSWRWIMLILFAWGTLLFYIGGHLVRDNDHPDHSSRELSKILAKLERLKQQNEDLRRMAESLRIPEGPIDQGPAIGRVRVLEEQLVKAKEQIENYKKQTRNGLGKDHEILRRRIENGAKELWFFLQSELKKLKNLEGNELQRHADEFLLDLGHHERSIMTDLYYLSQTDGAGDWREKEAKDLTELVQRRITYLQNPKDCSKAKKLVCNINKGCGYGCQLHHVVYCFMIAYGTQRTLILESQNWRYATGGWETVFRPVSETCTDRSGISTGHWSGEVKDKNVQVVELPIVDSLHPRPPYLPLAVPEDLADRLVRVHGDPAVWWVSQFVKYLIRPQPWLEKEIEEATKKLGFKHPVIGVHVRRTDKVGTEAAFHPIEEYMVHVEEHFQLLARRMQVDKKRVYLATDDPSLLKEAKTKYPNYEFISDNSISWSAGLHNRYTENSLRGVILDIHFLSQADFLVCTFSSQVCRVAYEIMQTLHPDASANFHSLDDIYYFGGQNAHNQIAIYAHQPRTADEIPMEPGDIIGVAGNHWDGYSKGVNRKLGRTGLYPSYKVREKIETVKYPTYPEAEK

Ki [1]: 192 µM
SMILES: CC(=O)N[C@H]1[C@H](O[C@H]2[C@@H](O)[C@@H](CO)O[C@@H](OCc3ccc4ccccc4c3)[C@@H]2O)O[C@H](CO)C[C@@H]1O

IC50 [2]: 12 µM
SMILES: O=C(OC[C@H](Cc1ccccc1)N(Cc1ccccc1)Cc1ccccc1)N1CCC(n2c(=O)[nH]c3ccccc32)CC1

IC50 [3]: 4 µM
SMILES: CCCCCCCCCC(=O)N[C@H](CN1CCCC1)[C@H](O)c1ccccc1

SMILES: CC(C)[C@@H](C)/C=C/[C@@H](C)[C@H]1CCC2=C3[C@@H](O)[C@@H]4O[C@@]45C[C@@H](OC(=O)[C@@H](N)[C@@H](OS(=O)(=O)O)C(C)C)CC[C@]5(C)[C@H]3CC[C@@]21C(=O)O
IC50 [4]: 3 µM
MIC (Candida albicans): 0.2 µg/mL (≈ 0.299 µM)

IC50 [5]: 27 µM
SMILES: O=C(Oc1ccccc1)n1c(=O)oc2ccc(Cl)cc21

SMILES: O=C(O[C@H]1Cc2c(O)cc(O)cc2O[C@H]1c1cc(O)c(O)c(O)c1)c1cc(O)c(O)c(O)c1
IC50 [6]: 1.8 µM
IC50 [7]: 2.7 µM
IC50 [8]: 0.7 µM

IC50 [2]: 10 µM
SMILES: C[C@@H](COC(=O)N1CCC(n2c(=O)[nH]c3ccccc32)CC1)N(Cc1ccccc1)Cc1ccccc1

IC50 [3]: 164 µM
SMILES: CCCCCCCCO[C@H]1CN(CCCCCCCC)[C@H](CO)[C@@H](O)[C@@H]1O

IC50 [8]: 4.8 µM
SMILES: CC(C)CCCCCCCCCCCCc1cc(OS(=O)(=O)O)cc(OS(=O)(=O)O)c1

IC50 [9]: 152 µM
SMILES: O=C(NC[C@H]1O[C@@H](n2ccc(=O)[nH]c2=O)[C@H](O)[C@@H]1O)c1cccc(CO[C@@H]2O[C@H](CO)[C@H](O)[C@H](O)[C@H]2O)n1

SMILES: O=S(=O)(O)c1cc(Nc2nc(Cl)nc(Nc3ccc(Nc4nc(Cl)nc(Nc5cc(S(=O)(=O)O)cc6cc(S(=O)(=O)O)c(/N=N/c7ccccc7S(=O)(=O)O)c(O)c56)n4)cc3)n2)c2c(O)c(/N=N/c3ccccc3S(=O)(=O)O)c(S(=O)(=O)O)cc2c1
Ki [10]: 2 µM

IC50 [8]: 4.3 µM
SMILES: CCCCCCCCCCCCCCCc1cc(OS(=O)(=O)O)cc(OS(=O)(=O)O)c1
